Experimental data published in paper PMC12851007 (Angewandte Chemie (International Ed. in English), 2025).
Where two headings read alike, the source gives them in different places. Where a SMILES comes first, the peptide text is derived from it.

Columns and labels:
[1] = CF dye efflux assay, POPC vesicles; format: biochemical; settings: error = SD of fit
Description: Time-dep endent fluores cence intensit y traces, I (t), were subsequentl y normalized to fractional intensities, If(t), using equation (1). Therein, I 0 is the intensity just before addition of peptide and I ∞ is the constant intensit y after addition of the calibration cockt ail.
IIf (tt ) = II (tt )−II0II∞ − II0 (1)
The concentration-dependent fractional intensities just before the addition of the calibration cocktail, If, were then normalized to fractional membrane activities, Y, using equation (2).
Therein, If,0 is the fractional intensit y just before addition of the calibration cocktail in absence of peptide and I f,∞ is the constant fractional intensity after addition of the calibration cocktail.
YY = IIf − IIf,0IIf,∞ − IIf,0 (2)
The fractional membrane activities, Y, were subsequently plotted against the peptide concentration, c, and analysed using the Hill equation (3) to obtain the effective molar concentration, EC50, and the Hill coefficient, n. Y0 and Y ma x are the fractional membrane activities in absen ce o f p eptide and at max imal peptide concent rations. For peptides with too little activity to determine Y ma x ex perimentall y, Y max was fixed at 1.0 during fitting.
YY = YY0 + YYmax − YY0nn (3)
Vesicle preparation. 100 µ L of a solution of 25 mg/ml of POPC in chloroform or 200 µ L of a solution of 25 mg/ml of EYPC in chloroform was purged with a stream of nitrogen and dried overnight under high vacuum. The thin lipid film was reh ydrated with 1ml of reh yd ration buffer (= inside buffer, see Table S3 ) b y agitation at room temperature for 30 min and then subjected to 5 freeze- thaw cycles (freezing in liquid nitrogen and thawing at 40 °C).
Subsequently, the liposome suspension was extruded ≥ 15 times through a polycarbonate membrane (pore size 100 nm). Extravesicular components were then removed by size exclusion chromatography using a 1.5 × 12 cm polyprop ylene column (Bio- Rad, German y) with 1.0 g Sephad ex G-50 (medium) as a stationa r y ph ase and the resp ectiv e outside buffer for […]
Ta b l e S 3. Combinations of inside and outside buffer for CF -LUVs.
No. Lipid Inside buffer = rehydration buffer Outside buffer
(1) EYPC 10 mM Hepes, 50 mM CF, pH 7.5 10 mM Hepes, 97 mM NaCl, pH 7.5
(2) POPC 10 mM Hepes, 50 mM CF, pH 7.5 10 mM Hepes, 97 mM NaCl, pH 7.5
(3) POPC 10 mM Hepes, 50 mM CF, pH 7.5 10 mM Hepes, 175 mM glucose, pH 7.5 [a] [a] Glucose b uffers (183 mOsm/L at 25 °C) were used within one week after preparation.
Vesicle quality control. The size distribution of the liposomes was confirmed by DLS to be unimodal and avera ge ve sicles diameters wer e in the ran ge from 115 to 130 nm. The final lipid content in the liposome s uspension after prep ar ation and sep aration w as det ermined b y NMR. CF vesicles are comparabl y leak y and cont ain minor amounts of ex travesi cular CF after a f ew days. When the fluores cence chan ge after vesicl e lys is b y addition of 20 µ L 1.6% (wt/vol) TX-100 was less than a factor of four, the vesicle suspension was no longer used.
Assay protocol. An appropriate volume of the liposome stock solutions was diluted to 2 mL with outside buffer in a 10 ×10 mm quartz glass cuvette to afford a phospholipid concentration of 25 µM. The cuvette was placed into a thermostatted fluorimeter sample holder and gentl y stirred at 300 rpm at (25.0± 0.1) °C. Subsequentl y, the time-dependent change in fluorescence intensity (C F: λ exc = 492 nm, λ em = 517 nm) was recorded during addition of 20 µL peptide stock solution of var ying concentrations at 60 s and 20µ L of a calibration cocktail (1. 6% […]
intensities, If(t), using equation (1) and the concentration- dependent fractional intensities just before the addition of th e calibration co cktail, I f, w ere then normaliz ed to fr actional membran e activities, Y, using equation (2). The fractional membrane activities, Y, were subsequently plotted against the peptide concentration, c, and anal ysed using the Hill equation (3) to obtain […]

[2] = CX4/LCG tandem membrane assay with subsequent addition of spermine (transient vs stable pores); format: in vitro ADME; settings: TP10 0.2 µM or melittin 5 nM at 60 s, spermine 20 µM at 340 s, 10 mM Hepes, 175 mM glucose, pH 7.5
Procedure: This means that TP10 renders the vesicle membranes only transiently permeable, while after some time, the pores “close”, most likely due to equilibration of the inside and outside concentrations of TP10. At sufficiently low TP10 concentrations, the vesicles have consequently released only some of their content after a certain incubation time and no further release of encapsulated compounds is observed thereafter. The transient nature of the TP10 pores was also confirmed herein by the CX4/LCG tandem membrane assay (Figure 4, black line). […] At this point of time, the TP10 pores should be either closed, or there should be some remaining stable equilibrium pores, which are too small to allow efflux of relatively large CX4 and/or LCG (MW > 500 Da), but sufficiently large to allow CF efflux (MW = 376 Da). Closed pores would refer to the previously reported graded mechanism, whereas the latter would point toward an all‐or‐none release mechanism.^[ [12], [70] ^] […] The newly developed assay has therefore the added capacity to afford more fine‐grained mechanistic information on membrane activity.
The blue trace is a control to illustrate full dissociation of the CX4/LCG complex during vesicle lysis by TX‐100.
LysisLysis vesicle lysisvesicle lysis […]
calibration cocktail at 600 s. a) Original changes in fluorescence intensity of LCG ( λex = 369 nm, λem = […]

[3] = single-channel, 25 µM POPC⸧CF-LUVs, inside 10 mM Hepes, 50 mM CF, pH 7.5, outside 10 mM Hepes, 175 mM glucose, pH 7.5, n = 1, read-out: EC50, CF assay in glucose-containing buffer

| Structure (SMILES) | EC50, CF assay, isosmotic ([1]; 25 µM POPC⸧CF-LUVs diluted into 10 mM Hepes, 97 mM NaCl, pH 7.5, 25 °C, fractional activity at 590 s, n = 1 (Table S6, Figures S17, S19)) | EC50, CF assay, POPC ([1]; 25 µM lipid, POPC⊃CF-LUVs, 10 mM Hepes, 97 mM NaCl, pH 7.5, 25 °C, fractional activity at 590 s, Hill fit, n = 1 (Table S5)) | EC50 [1, 3] | EC50 ([1]; 25 µM lipid, POPC⊃CF-LUVs, 10 mM Hepes, 97 mM NaCl, pH 7.5, 25 °C, fractional activity at 590 s, Hill fit, n = 1 (Table S5), read-out: EC50, CF assay, POPC) | kind of pores (fluorescence response to spermine added after the peptide) [2] |
| --- | --- | --- | --- | --- | --- |
| CC[C@H](C)[C@H](NC(=O)[C@H](CCCCN)NC(=O)[C@@H](NC(=O)[C@@H](N)CCC(N)=O)[C@@H](C)CC)C(=O)N[C@@H](Cc1c[nH]c2ccccc12)C(=O)N[C@@H](Cc1ccccc1)C(=O)N[C@@H](CCC(N)=O)C(=O)N[C@@H](CC(N)=O)C(=O)N[C@@H](CCCNC(=N)N)C(=O)N[C@@H](CCCNC(=N)N)C(=O)N[C@@H](CCSC)C(=O)N[C@@H](CCCCN)C(=O)N[C@@H](Cc1c[nH]c2ccccc12)C(=O)N[C@@H](CCCCN)C(=O)N[C@@H](CCCCN)C(=O)O (H-QIKIWFQNRRMKWKK-OH) | too low to determine | too low to determine | – | – | – |
| CC(C)C[C@H](NC(=O)[C@H](CC(C)C)NC(=O)[C@H](CCCNC(=N)N)NC(=O)[C@@H](N)CC(C)C)C(=O)N[C@@H](CCCNC(=N)N)C(=O)N[C@@H](Cc1c[nH]c2ccccc12)C(N)=O [LRLLRW] (H-LRLLRW-NH2) | – | – | 101 ± 9 µM | – | – |
| CC(C)[C@H](NC(=O)[C@H](CCCCN)NC(=O)[C@H](CCCNC(=N)N)NC(=O)[C@H](CCCCN)NC(=O)[C@H](CCCCN)NC(=O)[C@H](CCCCN)NC(=O)[C@@H]1CCCN1C(=O)[C@H](CCC(N)=O)NC(=O)[C@H](CO)NC(=O)[C@H](Cc1c[nH]c2ccccc12)NC(=O)[C@H](CC(=O)O)NC(=O)[C@@H](NC(=O)[C@H](Cc1c[nH]c2ccccc12)NC(=O)[C@H](Cc1c[nH]c2ccccc12)NC(=O)[C@@H](NC(=O)[C@H](CC(=O)O)NC(=O)[C@H](Cc1c[nH]c2ccccc12)NC(=O)[C@H](Cc1c[nH]c2ccccc12)NC(=O)[C@@H](NC(=O)[C@H](CC(=O)O)NC(=O)[C@@H](N)CCCCN)[C@@H](C)O)[C@@H](C)O)[C@@H](C)O)C(=O)O [Pep‐1] (H-KDTWWDTWWTDWSQPKKKRKV-OH) | – | – | 540 ± 90 µM | 114 ± 5 µM | – |
| CC[C@H](C)[C@H](NC(=O)[C@H](CCCCN)NC(=O)[C@H](CCCCN)NC(=O)[C@H](C)NC(=O)[C@H](CC(C)C)NC(=O)[C@H](C)NC(=O)[C@H](C)NC(=O)[C@H](CC(C)C)NC(=O)[C@H](C)NC(=O)[C@H](CCCCN)NC(=O)[C@H](CC(C)C)NC(=O)[C@H](CC(N)=O)NC(=O)[C@@H](NC(=O)[C@H](CCCCN)NC(=O)CNC(=O)[C@H](CC(C)C)NC(=O)[C@H](CC(C)C)NC(=O)[C@H](Cc1ccc(O)cc1)NC(=O)CNC(=O)[C@H](C)N)[C@@H](C)CC)C(=O)N[C@@H](CC(C)C)C(=O)O [TP10] | – | – | 0.12 ± 0.02 µM | – | absence of stable TP10 pores |
